Assay [1] deals with T1, HCV polymerase (NS5B) type 1a (Hepatitis C virus genotype 1a, UniProt P26664).
T1 construct: made in house; host or cells: Escherichia coli (by the 'similar method' of the 1b enzyme)
In words: Assay of enzyme (HCV polymerase) inhibitory activity, type 1a enzyme. Format: biochemical, HCV type 1a (cloned from the blood of patients). The note with it: HCV polymerase inhibitory activity (IC50), 1a, type 1a enzyme 1.5 μg/ml, 25° C., 60 min. The method, boiled down:
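His-tagged NS5B, C-terminal 47 residues deleted, type 1a at 1.5 μg/ml, with 5 μg/ml HCV 3′UTR substrate RNA, 50 μM ATP/GTP/CTP, 2 μM UTP plus [3H]UTP, pH 7.5 Tris, 5 mM MgCl2; 60 min at 25° C. TCA-precipitated RNA counted by scintillation; IC50 from radioactivity with vs. without compound.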

Assay [2] has as its target T2, HCV polymerase (NS5B) type 1b (Hepatitis C virus genotype 1b, UniProt P26663).
T2 construct: a region encoding NS5B (J Virol 1991 March, 65(3), 1105-13, 544 amino acids after deletion of 47 amino acids on the C-terminal); 6xHis (C); made in house; host or cells: Escherichia coli
Nature of the assay: Assay of enzyme (HCV polymerase) inhibitory activity, type 1b enzyme. In kind it is biochemical, HCV BK strain (type 1b). The note with it: HCV polymerase inhibitory activity (IC50), 1b, type 1b enzyme 0.5 μg/ml, 25° C., 60 min. In a few lines: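 His-tagged, C-terminally truncated NS5B (BK strain, 1b; 0.5 μg/ml) incubated with compound 60 min at 25 °C on 3′UTR-derived substrate RNA (5 μg/ml), 50 μM ATP/GTP/CTP, 2 μM UTP plus [3H]UTP, pH 7.5. Acid-precipitated RNA counted; IC50 from radioactivity with and without compound.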

For `CCC(F)(F)c1ccc(CNC(=O)[C@H]2CN(c3cnc(C(N)=O)cn3)CCN2S(=O)(=O)c2ccc(OC(F)(F)F)cc2)cc1` [Example 586, (R)-4-(4-trifluoromethoxy-benzenesulfonyl)-3,4,5,6-tetrahydro-2H-[1,2′]bipyrazinyl-3,5′-dicarboxylic acid 5′-amide 3-[4-(1,1-difluoro-propyl)-benzylamide]], the IC50 in assay [1] and in assay [2] was < 100 nM each time.

`CC(C)(C)OC(=O)N1CCc2nc(N3CCN(S(=O)(=O)c4ccc(OC(F)(F)F)cc4)[C@@H](C(=O)NCc4ccc(C(C)(C)C)cc4)C3)sc2C1` [Example 587, 2-[(R)-3-(4-tert-butyl-benzylcarbamoyl)-4-(4-trifluoromethoxy-benzenesulfonyl)-piperazin-1-yl]-6,7-dihydro-4H-thiazolo[5,4-c]pyridine-5-carboxylic acid tert-butyl ester]: the IC50 (commonly the concentration at which inhibition is half-maximal) in assay [1] was 100 to 1000 nM; in assay [2], < 100 nM.

As to `CC(C)(C)c1ccc(CNC(=O)[C@H]2CN(c3nc4c(s3)CNCC4)CCN2S(=O)(=O)c2ccc(OC(F)(F)F)cc2)cc1` [Example 588, (R)-4-(4,5,6,7-tetrahydro-thiazolo[5,4-c]pyridin-2-yl)-1-(4-trifluoromethoxy-benzenesulfonyl)-piperazine-2-carboxylic acid 4-tert-butyl-benzylamide], the concentration for half-maximal inhibition (IC50) in assay [1] and in assay [2] was < 100 nM in each case.

On to `CC(=O)N1CCc2nc(N3CCN(S(=O)(=O)c4ccc(OC(F)(F)F)cc4)[C@@H](C(=O)NCc4ccc(C(C)(C)C)cc4)C3)sc2C1` [Example 589, (R)-4-(5-acetyl-4,5,6,7-tetrahydro-thiazolo[5,4-c]pyridin-2-yl)-1-(4-trifluoromethoxy-benzenesulfonyl)-piperazine-2-carboxylic acid 4-tert-butyl-benzylamide], for which the IC50 in assay [1] and in assay [2] was < 100 nM in each case.

Take `CCC(F)(F)c1ccc(CNC(=O)[C@H]2CN(C(=O)Cc3ccncn3)CCN2S(=O)(=O)c2ccc(OC(F)(F)F)cc2)cc1` [Example 590, (R)-4-(2-pyrimidin-4-yl-acetyl)-1-(4-trifluoromethoxy-benzenesulfonyl)-piperazine-2-carboxylic acid 4-(1,1-difluoro-propyl)-benzylamide]: the IC50 in assay [1] and in assay [2] was < 100 nM each time.

Consider `CCC(F)(F)c1ccc(CNC(=O)[C@H]2CN(c3cnc(C#N)cn3)CCN2S(=O)(=O)c2ccc(OC(F)(F)F)cc2)cc1` [Example 591, (R)-5′-cyano-4-(4-trifluoromethoxy-benzenesulfonyl)-3,4,5,6-tetrahydro-2H-[1,2′]bipyrazinyl-3-carboxylic acid 4-(1,1-difluoro-propyl)-benzylamide], for which the half-inhibitory concentration (IC50) in assay [1] and in assay [2] was < 100 nM each time.

As to `CCC(F)(F)c1ccc(CNC(=O)[C@H]2CN(c3cnc(-c4nnn[nH]4)cn3)CCN2S(=O)(=O)c2ccc(OC(F)(F)F)cc2)cc1` [Example 592, (R)-5′-(1H-tetrazol-5-yl)-4-(4-trifluoromethoxy-benzenesulfonyl)-3,4,5,6-tetrahydro-2H-[1,2′]bipyrazinyl-3-carboxylic acid 4-(1,1-difluoro-propyl)-benzylamide], the concentration for half-maximal inhibition (IC50) in assay [1] and in assay [2] was < 100 nM each time.

In the case of `CC(C)(C)c1ccc(CNC(=O)[C@H]2CN(c3cnc(CN4CCOCC4)cn3)CCN2S(=O)(=O)c2ccc(OC(F)(F)F)cc2)cc1` [Example 593, (R)-5′-morpholin-4-ylmethyl-4-(4-trifluoromethoxy-benzenesulfonyl)-3,4,5,6-tetrahydro-2H-[1,2′]bipyrazinyl-3-carboxylic acid 4-tert-butyl-benzylamide], the concentration for half-maximal inhibition (IC50) in assay [1] and in assay [2] was < 100 nM in each case.

For the molecule `CN1CCN(Cc2cnc(N3CCN(S(=O)(=O)c4ccc(OC(F)(F)F)cc4)[C@@H](C(=O)NCc4ccc(C(C)(C)C)cc4)C3)cn2)CC1` [Example 594, (R)-5′-(4-methyl-piperazin-1-ylmethyl)-4-(4-trifluoromethoxy-benzenesulfonyl)-3,4,5,6-tetrahydro-2H-[1,2′]bipyrazinyl-3-carboxylic acid 4-tert-butyl-benzylamide], the IC50 in assay [1] and in assay [2] was < 100 nM each time.

As for `CCC(F)(F)c1ccc(CNC(=O)[C@H]2CN(c3cnc(CN(C)C)cn3)CCN2S(=O)(=O)c2ccc(OC(F)(F)F)cc2)cc1` [Example 595, (R)-5′-dimethylaminomethyl-4-(4-trifluoromethoxy-benzenesulfonyl)-3,4,5,6-tetrahydro-2H-[1,2′]bipyrazinyl-3-carboxylic acid 4-(1,1-difluoro-propyl)-benzylamide], the IC50 in assay [1] and in assay [2] was < 100 nM throughout.

In the case of `CCC(F)(F)c1ccc(CNC(=O)[C@H]2CN(c3nc(NC(C)=O)ns3)CCN2S(=O)(=O)c2ccc(OC(F)(F)F)cc2)cc1` [Example 596, (R)-4-(3-acetylamino-[1,2,4]thiadiazol-5-yl)-1-(4-trifluoromethoxy-benzenesulfonyl)-piperazine-2-carboxylic acid 4-(1,1-difluoro-propyl)-benzylamide], the 50% inhibitory concentration (IC50) in assay [1] and in assay [2] was < 100 nM each time.

As for `CC(C)(C)c1ccc(CNC(=O)[C@H]2CN(c3nc4cc[nH]c(=O)c4s3)CCN2S(=O)(=O)c2ccc(OC(F)(F)F)cc2)cc1` [Example 597, (R)-4-(4-oxo-4,5-dihydro-thiazolo[5,4-c]pyridin-2-yl)-1-(4-trifluoromethoxy-benzenesulfonyl)-piperazine-2-carboxylic acid 4-tert-butyl-benzylamide], the IC50 in assay [1] and in assay [2] was < 100 nM in each case.

Take `CC(=O)N1CCN(S(=O)(=O)c2ccc(OC(F)(F)F)cc2)[C@@H](C(=O)NCc2ccc(-c3ccccn3)s2)C1` [Example 598, (R)-4-acetyl-1-(4-trifluoromethoxy-benzenesulfonyl)-piperazine-2-carboxylic acid (5-pyridin-2-yl-thiophen-2-ylmethyl)-amide]: the half-inhibitory concentration (IC50) in assay [1] and in assay [2] was 100 to 1000 nM throughout.

Take `CC(=O)N1CCN(S(=O)(=O)c2ccc(OC(F)(F)F)cc2)[C@@H](C(=O)NCc2csc(-c3cccs3)n2)C1` [Example 599, (R)-4-acetyl-1-(4-trifluoromethoxy-benzenesulfonyl)-piperazine-2-carboxylic acid (2-thiophen-2-yl-thiazol-4-ylmethyl)-amide]: the values for the concentration for half-maximal inhibition (IC50) in assay [1] and in assay [2] were 100 to 1000 nM and > 1000 nM, respectively.

For `CC(C)(C)c1ccc(CNC(=O)[C@H]2CN(c3nc4c(s3)CN(S(C)(=O)=O)CC4)CCN2S(=O)(=O)c2ccc(OC(F)(F)F)cc2)cc1` [Example 600, (R)-4-(5-methanesulfonyl-4,5,6,7-tetrahydro-thiazolo[5,4-c]pyridin-2-yl)-1-(4-trifluoromethoxy-benzenesulfonyl)-piperazine-2-carboxylic acid 4-tert-butyl-benzylamide], the IC50 in assay [1] and in assay [2] was < 100 nM in each case.

Consider `CCNC(=O)N1CCc2nc(N3CCN(S(=O)(=O)c4ccc(OC(F)(F)F)cc4)[C@@H](C(=O)NCc4ccc(C(C)(C)C)cc4)C3)sc2C1` [Example 601, 2-[(R)-3-(4-tert-butyl-benzylcarbamoyl)-4-(4-trifluoromethoxy-benzenesulfonyl)-piperazin-1-yl]-6,7-dihydro-4H-thiazolo[5,4-c]pyridine-5-carboxylic acid ethylamide], for which the 50% inhibitory concentration (IC50) in assay [1] and in assay [2] was < 100 nM each time.

Turning to `CC(C)(C)c1ccc(CNC(=O)[C@H]2CN(c3nc4nc[nH]c(=O)c4s3)CCN2S(=O)(=O)c2ccc(OC(F)(F)F)cc2)cc1` [Example 602, (R)-4-(7-oxo-6,7-dihydro-thiazolo[4,5-d]pyrimidin-2-yl)-1-(4-trifluoromethoxy-benzenesulfonyl)-piperazine-2-carboxylic acid 4-tert-butyl-benzylamide], the half-inhibitory concentration (IC50) in assay [1] and in assay [2] was < 100 nM throughout.

As for `CC(C)(C)c1ccc(CNC(=O)[C@H]2CN(c3nc(CO)c(C(=O)O)s3)CCN2S(=O)(=O)c2ccc(OC(F)(F)F)cc2)cc1` [Example 603, 2-[(R)-3-(4-tert-butyl-benzylcarbamoyl)-4-(4-trifluoromethoxy-benzenesulfonyl)-piperazin-1-yl]-4-hydroxymethyl-thiazole-5-carboxylic acid], the IC50 in assay [1] and in assay [2] was 100 to 1000 nM throughout.

In the case of `CCC(F)(F)c1ccc(CNC(=O)[C@H]2CN(c3cnc(CO)c(N)n3)CCN2S(=O)(=O)c2ccc(OC(F)(F)F)cc2)cc1` [Example 604, (R)-6′-amino-5′-hydroxymethyl-4-(4-trifluoromethoxy-benzenesulfonyl)-3,4,5,6-tetrahydro-2H-[1,2′]bipyrazinyl-3-carboxylic acid 4-(1,1-difluoro-propyl)-benzylamide], the half-inhibitory concentration (IC50) is 100 to 1000 nM in assay [1] and < 100 nM in assay [2].

Take `CCC(F)(F)c1ccc(CNC(=O)[C@H]2CN(c3cc(N)ncn3)CCN2S(=O)(=O)c2ccc(OC(F)(F)F)cc2)cc1` [Example 605, (R)-4-(6-amino-pyrimidin-4-yl)-1-(4-trifluoromethoxy-benzenesulfonyl)-piperazine-2-carboxylic acid 4-(1,1-difluoro-propyl)-benzylamide]: the half-inhibitory concentration (IC50) in assay [1] and in assay [2] was < 100 nM throughout.

These data come from patent publication US8017612B2, “Piperazine compound and use thereof as a HCV polymerase inhibitor” (priority 2006, dated 2011).
